Data reported in US11077167B2, “Agent for promoting skeletal muscle injury repair” (Osaka University, priority 2017, dated 2021).

Columns and labels:
[1] = system: muscle injury model rats (incised masseter muscles on both sides); experiment: Behavioral physiological experiment (feeding efficiency), Example 2; type: in vivo, Jcl:SD rats
Experimental: (§1) Incisions were made in masseter muscles on both sides in Jcl:SD rats (10 weeks old) under anesthesia in the same manner as in Example 1. Immediately after muscle incision, 1 mL each of the SV peptide (20 ng/mL) or 1 mL each of PBS was intramuscularly administered into several sites surrounding the cut surfaces. The incision on each side was made along a straight line connecting the lateral angle of the eye and the mandibular angle, extending in depth from the fascia on the skin side to the lateral periosteum on the mandibular ramus. The cut surfaces were subjected to electrocoagulation with an electric scalpel for the arrest of bleeding (see FIG. 1). […]
In the same manner as in Example 1, each rat was housed in a transparent plastic cage of 30 cm in length×30 cm in width×30 cm in height at postoperative weeks 1, 2, 4, 6, and 8, and the behavior was recorded on video cameras during the active time of rats (18:00 to 22:00). Food intake and mastication time were measured, and the food intake per unit of mastication time (feeding efficiency) was calculated.

[2] = system: muscle injury model rats (incised masseter muscles on both sides); experiment: Electrophysiological experiment (masseter EMG), Example 2; type: in vivo, Jcl:SD rats
Experimental: as §1
In the same manner as in Example 1, bipolar needle electrodes were retained in the masseter muscles on both sides, and myogenic potential signals received through connectors fixed to both sides of the parietal bone were monitored. EMG data were recorded at postoperative weeks 1, 2, 4, 6, and 8.
The integral of bursts in the left (administration side) masseter muscle in the SV group or the PBS group was calculated as a measure of muscle activity and represented in FIG. 9 as a relative value compared to the 1-week postoperative value, which was assumed as 1. […]

[3] = system: muscle injury model rats (incised masseter muscles on both sides); experiment: CT image analysis at postoperative week 8; type: in vivo, Jcl:SD rats
Experimental: as §1
Images were taken at postoperative week 8 using a micro CT for laboratory animals (Rigaku, tube voltage: 90 kV, tube current: 160 μA, voxel size: 118 μm). […] On the image at the level of the occlusal plane including the masseter muscle incision site, the muscle cross-sectional area (CSA), the mean CT value, and the % CSA (the percentage of the area having a muscle CT value in the area of interest) were measured and compared.

[4] = system: Human skeletal muscle satellite cells (HskMSCs); experiment: Chemotactic capacity (Chemotaxicell membrane); type: cell-based; details: SV peptide 20 ng/mL as chemoattractant; 12 hours; vs PBS or random SV
Experimental: (§2) Human skeletal muscle satellite cells (HskMSCs) were purchased from ScienCell Research Laboratories and used. The medium used for HskMSC culture was the supplier's recommended medium (Skeletal Muscle Cell Medium containing 5% FBS, Skeletal Muscle Cell Growth Supplement, and penicillin/streptomycin solution).
(§3) A polycarbonate membrane with a pore size of 8 μm (Chemotaxicell: Kurabo Industries LTD.) was immersed in a 10 μg/mL fibronectin solution at room temperature for 30 minutes for coating the membrane. A medium containing the SV peptide (20 ng/mL, SV group), the random SV (20 ng/mL, random SV group), or PBS (PBS group) as a chemoattractant was added to a lower chamber. On an upper chamber, human skeletal muscle satellite cells and human skeletal muscle myoblasts were separately seeded at 2.0×10^4 cells/mL in DMEM containing 0.1% BSA. A pair of chambers was incubated at 37° C. for 12 hours. The cells on the upper surface of the membrane were removed with a swab, and the membrane was fixed with a 10% neutral buffered formalin solution (Wako Pure Chemical Industries, Ltd.) and stained with hematoxylin. The number of cells migrated to the lower surface of the membrane was measured under an optical microscope.

[5] = system: Human skeletal muscle myoblasts (HSMMs); experiment: Chemotactic capacity (Chemotaxicell membrane); type: cell-based; details: SV peptide 20 ng/mL as chemoattractant; 12 hours; vs PBS or random SV
Experimental: (§4) Human skeletal muscle myoblasts (HSMMs) were purchased from Lonza and used. The medium used for HSMM culture was the supplier's recommended medium (Skeletal Muscle Growth Media-2 supplemented with SingleQuots Kit).
as §3

[6] = system: Human skeletal muscle satellite cells (HskMSCs); experiment: Cell migratory capacity (cell-denuded area); type: cell-based; details: SV peptide 20 ng/mL
Text: as §2
Human skeletal muscle satellite cells and human skeletal muscle myoblasts were separately cultured on 60-mm (diameter) dishes (Iwaki) to 100% confluency. From each dish, a 2-mm-wide strip of cells were removed, and the medium was replaced with a medium containing the SV peptide (20 ng/mL, SV group), the random SV (20 ng/mL, random SV group), or PBS (PBS group). Thereafter, culture was continued. Images were taken with a digital camera mounted on a phase-contrast microscope every 12 hours. The cell-denuded area was measured using the image-analysis software ImageJ (NIH, USA). The cell migration percentage was determined by calculating the percentage of reduction in the cell-denuded area relative to the value immediately after cell removal.

[7] = system: Human skeletal muscle myoblasts (HSMMs); experiment: Myogenin expression by immunofluorescence staining; type: cell-based; details: SV peptide 20 ng/mL, HS group = 2% horse serum positive control
Text: as §4
Myogenin is known to be expressed when myoblasts differentiate into myotube cells. In this experiment, myogenin expression was used as an index to examine the effect of the SV peptide on the differentiation of human skeletal muscle myoblasts.
Human skeletal muscle myoblasts were cultured in a medium containing the SV peptide (20 ng/mL, SV group), the random SV (20 ng/mL, random SV group), or PBS (PBS group) for 48 or 72 hours. For a positive control, human skeletal muscle myoblasts were cultured in an F-12/DMEM medium containing 2% horse serum, which is known to facilitate myoblast differentiation into myotube cells (Moira A. Lawson et al.: Cells Tissues Organs 2000; 167: 130-137) (HS group). After 48- or 72-hour culture, the cells were immunostained with an anti-human myogenin antibody by the usual method and observed with a fluorescence microscope.

angiogenesis = details: Patent Literature 1, Non Patent Literature 1 and 2; compared with VEGF; cited from earlier work
fibroblasts = details: Patent Literature 4; cited from earlier work

## SVVYGLR [SV peptide]
[1]; postoperative week 8, SV group vs PBS group
  feeding efficiency (food intake per unit of mastication time): significantly higher value than that in the PBS group
[1]; time course postoperative weeks 1, 2, 4, 6, 8, relative to week 1 value = 1
  feeding efficiency (food intake per unit of mastication time): time-dependent improvement in feeding efficiency
[2]; postoperative weeks 1 and 8, SV peptide into left masseter, right incision only
  chewing side preference: increase in left-side chewing preference over time postoperatively
[2]; weeks 4, 6, and 8, relative to 1-week postoperative value = 1, SV group vs PBS group
  integral of bursts in the left (administration side) masseter muscle: significantly greater values than those in the PBS group
[3]; CT image at occlusal plane level, SV group vs PBS group
  muscle cross-sectional area (CSA): significantly greater CSA in the area including the muscle incision site than that in the corresponding area in the PBS group
[3]; SV side vs control side within SV group
  % CSA (percentage of the area having a muscle CT value in the area of interest): significantly higher % CSA on the left side with SV administration (SV side) than that on the right side without administration (control side)
[4]
  chemotactic capacity (number of cells migrated to lower surface of membrane): tended to have a higher chemotactic capacity than that of the counterpart in the PBS group or the random SV group, but there was no significant intergroup difference
[5]
  chemotactic capacity (number of cells migrated to lower surface of membrane): significantly higher chemotactic capacity than that of the counterpart in the PBS group or the random SV group
[6]
  cell migratory capacity: did not affect
[7]; 48-hour culture
  percentage of myogenin-positive cells: significantly higher than that in the PBS group or the random SV group, but significantly lower than that in the HS group
[7]; 72-hour culture
  percentage of myogenin-positive cells: significantly higher than that in the PBS group or the random SV group, and comparable to that in the HS group
angiogenesis
  angiogenic activity: high angiogenic activity that is comparable to that of VEGF
fibroblasts
  type III collagen production in fibroblasts: promotes type III collagen production in fibroblasts
